Laboratory results: US5919799A, “Imidazothiazole compound” (Nikken Chemicals Co., Ltd., priority 1995, dated 1999)
Counter-ions that a name gives are not always drawn.

Tests used:
[1] = tested on: VJ-300 cells (multidrug resistant clones of KB cells); test: In vitro suppression of proliferation of VJ-300 cells by co-administration with vincristine; assay type: cell-based, Human
Method: As the incubation solution, an Eagle MEM medium (made by Nissui Seiyakusha) containing 10% fetal calf serum (made by Flow Laboratories Co.) and 0.292 mg/ml L-glutamine (made by Flow Laboratories Co.) was used. The action overcoming resistance to an anti-neoplastic agent and effect in enforcing the effect of an anti-neoplastic agent obtained through co-administration of the anti-neoplastic agent doxorubicin (adriamycin, ADM) and the test compounds were tested as follows:
The test cells were suspended in the incubation medium and adjusted to a cell density of about 200 cells/ml. 2 ml portions of the cell suspension were placed in petri dishes and incubated in a carbon dioxide gas incubator (5% CO2, 95% air) at 37° C. for 24 hours. Next, predetermined concentrations of aqueous ADM solutions and dimethyl sulfoxide (DMSO) solutions of predetermined concentrations of the test compounds were added into 5 to 10 μl portions, then incubation was continued for 7 days. After the end of the incubation, the samples were fixed by methanol, Giemsa staining was performed, the number of colonies in each dish was counted, and a volume reaction curve was prepared. This was used to calculate the ADM concentration at a 50% cell survival rate (LD50) and judge the action overcoming resistance to an anti-neoplastic agent and effect in enhancing the effect of an anti-neoplastic agent.
The LD50 concentration of ADM in the ADM control group for KB cells was shown as the resistance degree "1" and the other LD50 concentrations were indexed against this to calculate the resistance degrees. In Table 2, ADM alone (control) is the group administered ADM alone, ADM+Compound 1 is the group co-administered ADM and Compound 1 (1 μg /ml) and so on down to ADM+Compound 19 which is the group co-administered ADM and Compound 19 (1 μg /ml).
A volume reaction curve was prepared and the resistance calculated. In the Tables, VCR alone (control) is the group administered VCR alone, VCR+Compound 1 is the group co-administered VCR and Compound 1(1 μg /ml) and so on down to VCR+Compound 16 which is the group co-administered VCR and Compound 16 (1 μg/ml).

[2] = tested on: VCR resistant murine leukemic (P388/VCR) cells; test: In vivo effect of overcoming resistance to vincristine in VCR resistant murine leukemia cell bearing mice (intraperitoneal); design: species or system CDF1 male mice; conditions: i.p., 5 days; for Rate of prolongation of life (T/C %): vs non-administered control
Method: (a) 10^6 VCR resistant murine leukemic (P388/VCR) cells were transplanted intraperitoneally to groups of six CDF1 male mice. The compound of the present invention (10 or 100 mg/kg) was suspended in 0.5% sodium carboxymethyl cellulose containing 0.1% Tween 80, while the VCR (100 μg/kg) was dissolved in physiological saline. These were each administered intraperitoneally over 5 days and the mice observed to find the days of survival and the rate of prolongation of life with respect to the control (T/C). The effect in overcoming resistance to an anti-neoplastic agent (T/V) was found from the following formula:
Effect in overcoming resistance to anti-neoplastic agent (T/V%)=(Rate of prolongation of life when co-administering VCR and compound of present invention (T/C%))/(Rate of prolongation of life by VCR alone
In Table 5, "Control" is the non-administered group, VCR alone is the group administered just VCR (100 μg /kg), VCR+Compound 1 is the group co-administered VCR (100 μg /kg) and Compound 1 (100 mg/kg) and so on to VCR+Compound 14* which is the group co-administered VCR (100 μg /kg) and Compound 14 (10 mg/kg).

[3] = Acute toxicity test (a), intraperitoneal, three animals per group; conditions: mouse, in vivo, ip, ICR male mice, up to 7 days after administration
From the text: (a) Animals used: ICR male mice (Charles River Japan), 7 to 8 weeks old, were used three to a group.
Test method: The compound of the present invention was suspended in 0.5% sodium carboxymethyl cellulose(CMC-Na) containing 0.1% Tween 80. […] The survival of the animals was examined up to 7 days after administration, then the Van Der Wearder area method was used to calculate the LD50 value.

[4] = tested on: VCR resistant murine leukemia (P388/VCR) cells; test: In vivo effect of overcoming resistance with etoposide (VP-16) in P388/VCR bearing mice (intravenous); design: species or system CDF1 male mice; conditions: i.v., five days; for Rate of prolongation of life (T/C %): vs non-administered control
Method: (b) Separately, groups of six CDF1 male mice were intravenously given transplants of 1.2×10^5 VCR resistant murine leukemia (P388/VCR) cells. The compound of the present invention (20 or 40 mg/kg) was dissolved in 0.01N hydrochloric acid. Etoposide (VP-16, 3 mg/kg) was dissolved in a physiological saline solution. These were administered intravenously for five days and the days of survival were found. In the same way as (a), the rate of prolongation of life with respect to the control (T/C) and the effect in overcoming the resistance to an anti-neoplastic agent (T/V) were found. In Table 6, the control is the non-administered group, VP-16 alone is the group administered VP-16 (3 mg/kg) and VP-16+Compound 5 is the group co-administered VP-16 (3 mg/kg) and Compound 5 (40 mg/kg) and so on to VP-16+Compound 16 which is the group co-administered VP-16 (3 mg/kg) and Compound 16 (40 mg/kg).

[5] = Table 3, co-administered VCR and test compound (1 μg/ml), relative to VCR alone in KB = 1
[6] = VCR (100 μg/kg) + compound (100 mg/kg)
[7] = VCR (100 μg/kg) + compound (100 mg/kg), vs VCR alone
[8] = Table 4, co-administered VCR and test compound (1 μg/ml), relative to VCR alone in KB = 1
[9] = VP-16 (3 mg/kg) + compound (20 mg/kg)
[10] = VP-16 (3 mg/kg) + compound (40 mg/kg)
[11] = VP-16 (3 mg/kg) + compound (40 mg/kg), vs VP-16 alone
[12] = VCR (100 μg/kg) + compound (10 mg/kg)

SMILES	Resistance with VCR, VJ-300 (resistance degree) [1, 5]	Days of survival [2, 6] [days]	Effect overcoming resistance (T/V %) [2, 7] [%]	Rate of prolongation of life (T/C %) [2, 6] [%]	Resistance with VCR, VJ-300 (resistance degree) [1, 8]	also measured
O=C(NN=Cc1c(-c2ccccc2)nc2sc3c(n12)CCCC3)c1cccnc1 [Compound 1, 5,6,7,8-tetrahydro-2-phenyl-3-(3-pyridylcarbonylaminoiminomethyl)imidazo[2,1-b]benzothiazole]	3.3	12.33	111	118	–	LD50 at 168 h [3]: ≥ 2000 mg/kg
O=C(NN=Cc1c(-c2ccc(-c3ccccc3)cc2)nc2sc3c(n12)CCCC3)c1cccnc1 [Compound 2, 5,6,7,8-tetrahydro-2-biphenyl-3-(3-pyridylcarbonylaminoiminomethyl)imidazo[2,1-b]benzothiazole]	1.6	12.67	114	121	–	LD50 at 168 h [3]: ≥ 2000 mg/kg
O=C(NN=Cc1c(-c2cccc([N+](=O)[O-])c2)nc2sc3c(n12)CCCC3)c1cccnc1 [Compound 3, 5,6,7,8-tetrahydro-2-(3-nitrophenyl)-3-(3-pyridylcarbonylaminoiminomethyl)imidazo[2,1-b]benzothiazole]	2.7	–	–	–	–	–
COc1cc(-c2nc3sc4c(n3c2C=NNC(=O)c2cccnc2)CCCC4)cc(OC)c1OC [Compound 4, 5,6,7,8-tetrahydro-2-(3,4,5-trimethoxyphenyl)-3-(3-pyridylcarbonylaminoiminomethyl)imidazo[2,1-b]benzothiazole]	20.9	13.28	120	127	–	–
O=C(NN=Cc1c(-c2ccccc2)nc2sc3c(n12)CCCC3)c1ccccc1 [Compound 8, 5,6,7,8-tetrahydro-2-phenyl-3-(benzoylaminoiminomethyl)imidazo[2,1-b]benzothiazole]	3.5	12.00	108	115	–	–
O=C(NN=Cc1c(-c2ccccc2)nc2sc3c(n12)CCCC3)C1CCCN(Cc2ccccc2)C1 (stereo not drawn) [Compound 9, 5,6,7,8-tetrahydro-2-phenyl-3-[N-benzyl-3-piperidylcarbonylaminoiminomethyl]imidazo[2,1-b]benzothiazole]	–	–	–	–	2.5	–
CN1CCCC(C(=O)NN=Cc2c(-c3ccc([N+](=O)[O-])cc3)nc3sc4c(n23)CCCC4)C1 (stereo not drawn) [Compound 10, 5,6,7,8-tetrahydro-2-(4-nitrophenyl)-3-[N-methyl-3-piperidylcarbonylaminoiminomethyl]imidazo[2,1-b]benzothiazole hydrochloride]	–	–	–	–	8.7	Days of survival [4, 9]: 12.0 days; Effect overcoming resistance (T/V %) ([4]; VP-16 (3 mg/kg) + compound (20 mg/kg), vs VP-16 alone): 107%; Rate of prolongation of life (T/C %) [4, 9]: 117%
CN1CCCC(C(=O)NN=Cc2c(-c3ccc(-c4ccccc4)cc3)nc3sc4c(n23)CCCC4)C1 (stereo not drawn) [Compound 11, 5,6,7,8-tetrahydro-2-biphenyl-3-[N-methyl-3-piperidylcarbonylaminoiminomethyl]imidazo[2,1-b]benzothiazole hydrochloride]	–	–	–	–	1.3	Days of survival [4, 10]: 13.0 days; Effect overcoming resistance (T/V %) [4, 11]: 116%; Rate of prolongation of life (T/C %) [4, 10]: 126%
CC(C)N1CCCC(C(=O)NN=Cc2c(-c3ccccc3)nc3sc4c(n23)CCCC4)C1 (stereo not drawn) [Compound 13, 5,6,7,8-tetrahydro-2-phenyl-3-[N-isopropyl-3-piperidylcarbonylaminoiminomethyl]imidazo[2,1-b]benzothiazole hydrochloride]	–	–	–	–	2.0	–
O=C(NN=Cc1c(-c2ccccc2)nc2sc3ccccc3n12)c1cccnc1 [Compound 14, 2-phenyl-3-[3-pyridylcarbonylaminoiminomethyl]imidazo[2,1-b]benzothiazole]	–	–	–	–	4.0	Days of survival [2, 12]: 13.67 days; Effect overcoming resistance (T/V %) ([2]; VCR (100 μg/kg) + compound (10 mg/kg), vs VCR alone): 124%; Rate of prolongation of life (T/C %) [2, 12]: 131%
CCCN1CCCC(C(=O)NN=Cc2c(-c3ccccc3)nc3sc4ccccc4n23)C1 (stereo not drawn) [Compound 16, 2-phenyl-3-[N-propyl-3-piperidylcarbonylaminoimino-methyl]imidazo[2,1-b]benzothiazole hydrochloride]	–	–	–	–	2.6	Days of survival [4, 10]: 12.7 days; Effect overcoming resistance (T/V %) [4, 11]: 113%; Rate of prolongation of life (T/C %) [4, 10]: 123%
CC[C@]1(O)C[C@H]2CN(CCc3c([nH]c4ccccc34)[C@@](C(=O)OC)(c3cc4c(cc3OC)N(C=O)[C@H]3[C@@](O)(C(=O)OC)[C@H](OC(C)=O)[C@]5(CC)C=CCN6CC[C@]43[C@@H]65)C2)C1 [VCR, vincristine, reference compound]	–	–	–	–	–	Resistance with VCR, VJ-300 (resistance degree) ([1]; Table 3, VCR alone (Control), relative to KB = 1): 306.6; Resistance with VCR, VJ-300 (resistance degree) ([1]; Table 4, VCR alone (Control), relative to KB = 1): 843.1; Days of survival ([2]; VCR alone (100 μg/kg)): 11.08 days; Effect overcoming resistance (T/V %) ([2]; VCR alone (100 μg/kg), reference = 100): 100%; Rate of prolongation of life (T/C %) ([2]; VCR alone (100 μg/kg)): 106%
COc1cc([C@@H]2c3cc4c(cc3[C@@H](O[C@@H]3O[C@@H]5CO[C@@H](C)O[C@H]5[C@H](O)[C@H]3O)[C@H]3COC(=O)[C@H]23)OCO4)cc(OC)c1O [VP-16, Etoposide, reference compound]	–	–	–	–	–	Days of survival ([4]; VP-16 alone (3 mg/kg)): 11.2 days; Effect overcoming resistance (T/V %) ([4]; VP-16 alone (3 mg/kg), reference = 100): 100%; Rate of prolongation of life (T/C %) ([4]; VP-16 alone (3 mg/kg)): 109%
